Experimental data taken from ChEMBL document CHEMBL4725258, “2β-3,4-Unsaturated sialic acid derivatives: Synthesis optimization, and biological evaluation as Newcastle disease virus hemagglutinin-neuraminidase inhibitors” (Bioorg Med Chem, 2020).

How the values were obtained:
[1] = Inhibition of Newcastle disease virus neuraminidase using 4-MUNeu5Ac as substrate incubated for 15 mins by spectrofluorometric analysis; parameters: species or system avian paramyxovirus 1
Sialidase-3 = biological target: T1, Sialidase-3 (Homo sapiens, UniProt Q9UQ49); assay: Inhibition of human NEU3 expressed in HEK293A cells as substrate incubated for 1 hr by spectrofluorometric analysis; parameters: species or system HEK293
T1 sequence (Q9UQ49 whole entry): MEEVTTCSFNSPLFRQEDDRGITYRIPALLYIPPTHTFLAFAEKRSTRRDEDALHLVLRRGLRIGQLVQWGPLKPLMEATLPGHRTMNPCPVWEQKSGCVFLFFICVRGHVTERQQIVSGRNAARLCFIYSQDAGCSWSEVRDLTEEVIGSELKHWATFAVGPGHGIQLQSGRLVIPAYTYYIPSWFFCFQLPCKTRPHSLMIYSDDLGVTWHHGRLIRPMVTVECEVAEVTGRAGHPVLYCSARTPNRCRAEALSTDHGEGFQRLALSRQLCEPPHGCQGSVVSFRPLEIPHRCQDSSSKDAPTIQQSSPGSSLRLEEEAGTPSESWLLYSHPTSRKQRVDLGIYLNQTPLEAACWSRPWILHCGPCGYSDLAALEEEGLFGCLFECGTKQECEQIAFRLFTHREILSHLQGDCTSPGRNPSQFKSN

Row | Structure (SMILES) | IC50 [1] [µM] | IC50 (Sialidase-3) [µM]
1 | CCCCCCCCS[C@@]1(C(=O)O)C=C[C@@H](NC(C)=O)[C@H]([C@H](O)[C@H](O)CO)O1 | 406 | > 1000
2 | CO[C@]1(C(=O)O)C=C[C@@H](NC(C)=O)[C@H]([C@H](O)[C@H](O)CO)O1 | > 1000 | > 1000
3 | O=C(O)C1=C[C@H](O)[C@@H](NC(=O)C(F)(F)F)[C@H]([C@H](O)[C@H](O)CO)O1 | 2.45 | 3.9
4 | CC(=O)N[C@@H]1C=C[C@@](OC(C)C)(C(=O)O)O[C@H]1[C@H](O)[C@H](O)CO | 148 | > 1000
5 | CC(=O)N[C@@H]1C=C[C@](OC(C)C)(C(=O)O)O[C@H]1[C@H](O)[C@H](O)CO | 511 | > 1000
6 | CCS[C@]1(C(=O)O)C=C[C@@H](NC(C)=O)[C@H]([C@H](O)[C@H](O)CO)O1 | 100 | > 1000
7 | [N-]=[N+]=N[C@H]1C=C(C(=O)O)O[C@@H]([C@H](O)[C@H](O)CO)[C@@H]1NC(=O)C(F)(F)C(F)(F)C(F)(F)F | 0.213 | 
8 | CCS[C@@]1(C(=O)O)C=C[C@@H](NC(C)=O)[C@H]([C@H](O)[C@H](O)CO)O1 | 248 | > 1000
9 | CCCO[C@@]1(C(=O)O)C=C[C@@H](NC(C)=O)[C@H]([C@H](O)[C@H](O)CO)O1 | 512 | > 1000
10 | CCCCO[C@@]1(C(=O)O)C=C[C@@H](NC(C)=O)[C@H]([C@H](O)[C@H](O)CO)O1 | 485 | > 1000
11 | CCO[C@@]1(C(=O)O)C=C[C@@H](NC(C)=O)[C@H]([C@H](O)[C@H](O)CO)O1 | 384 | > 1000
12 | CO[C@@]1(C(=O)O)C=C[C@@H](NC(C)=O)[C@H]([C@H](O)[C@H](O)CO)O1 | > 1000 | > 1000
13 | CC(=O)N[C@H]1[C@H]([C@H](O)[C@H](O)CO)OC(C(=O)O)=C[C@@H]1O [NEU5AC2EN] | 13 | 2.4
